Measured values published in PubChem BioAssay AID256 (DTP/NCI, 2004).
Several values for one entry are separate records, joined by “and”; a condition that tells them apart may be missing. Equal values may be shown once. Toxic doses and inconclusive results are not listed. Rule for the calls: active = survival T/C of 150% or more; inactive = T/C below 125% in these data.

System: CD2F1 mice, L1210 leukemia ip, survival T/C
Experiment: NCI In Vivo Anticancer Drug Screen. Data for tumor model L1210 Leukemia (intraperitoneal) in CD2F1 (CDF1) mice
Settings: endpoint: mean survival time, higher = longer survival
Summary of the method: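 Vehicle-treated tumor-bearing mice served as controls (C) for compound-treated mice (T). Reported figure is T divided by C.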

[1] = dose: 100.0 mg/kg/injection, schedule: Q01DX001 (ip), vehicle: saline
[2] = dose: 200.0 mg/kg/injection, schedule: Q01DX001 (ip), vehicle: saline
[3] = dose: 400.0 mg/kg/injection, schedule: Q01DX001 (ip), vehicle: saline
[4] = dose: 50.0 mg/kg/injection, schedule: Q01DX009 (ip), vehicle: saline with Tween-80
[5] = dose: 100.0 mg/kg/injection, schedule: Q01DX009 (ip), vehicle: saline with Tween-80
[6] = dose: 100.0 mg/kg/injection, schedule: Q04DX003 (ip), vehicle: saline with Tween-80
[7] = dose: 200.0 mg/kg/injection, schedule: Q04DX003 (ip), vehicle: saline with Tween-80
[8] = dose: 400.0 mg/kg/injection, schedule: Q01DX009 (ip), vehicle: saline with Tween-80
[9] = dose: 400.0 mg/kg/injection, schedule: Q04DX003 (ip), vehicle: saline with Tween-80
[10] = dose: 200.0 mg/kg/injection, schedule: Q01DX009 (ip), vehicle: saline with Tween-80
[11] = dose: 100.0 mg/kg/injection, schedule: Q01DX001 (ip), vehicle: saline with Tween-80

Measured: T/C

CC(=O)CCCN(CCO)CCO
inactive: [1] 103 % of control | [2] 93 % of control | [3] 101 % of control

COCCN1CCC(C)(CO)C1 (stereo not drawn)
inactive: dose: 100.0 mg/kg/injection, schedule: Q01DX009 (ip), vehicle: saline 94 % of control | dose: 200.0 mg/kg/injection, schedule: Q01DX009 (ip), vehicle: saline 94 % of control | dose: 400.0 mg/kg/injection, schedule: Q01DX009 (ip), vehicle: saline 100 % of control

O=C(CNC(=O)Nc1cccc(C(F)(F)F)c1)N/N=C/c1cc(Br)ccc1O
inactive: [4] 96 % of control | [5] 88 % of control

C/C(=N/NC(=O)c1ccccc1)c1cccc(O)c1
inactive: [5] 89 % of control | [6] 94 % of control | [7] 90 % of control | [8] 103 % of control | [9] 97 % of control

CC(C)C(O)(C(=O)O)C(C)O (stereo not drawn)
inactive: dose: 12.5 mg/kg/injection, schedule: Q01DX009 (ip), vehicle: water 96 % of control | dose: 25.0 mg/kg/injection, schedule: Q01DX009 (ip), vehicle: water 94 % of control | dose: 50.0 mg/kg/injection, schedule: Q01DX009 (ip), vehicle: water 88 % of control | dose: 100.0 mg/kg/injection, schedule: Q01DX009 (ip), vehicle: water 89 % of control

Cc1cc(C(C(N)=O)c2ccccc2)ccc1N(CCCl)CCCl (stereo not drawn)
inactive: dose: 88.8 mg/kg/injection, schedule: Q01DX001 (ip), vehicle: other 122 % of control | dose: 300.0 mg/kg/injection, schedule: Q01DX001 (ip), vehicle: other 104 % of control

Cc1cc2cc3c(=O)[nH]c(=O)nc-3n(CC(O)C(O)C(O)CO)c2cc1C (stereo not drawn)
inactive: [1] 103 % of control | [2] 107 % of control | [3] 98 % of control

COc1cc([N+](=O)[O-])ccc1NC(=O)Nc1ccc(Cl)cc1
inactive: [5] 89 % of control | [6] 91 % of control | [10] 87 % of control | [9] 107 % of control

COc1cc2c3cc1Oc1c(OC)c(OC)cc4c1[C@@H](Cc1ccc(O)c(c1)Oc1ccc(cc1)C[C@@H]3N(C)CC2)N(C)CC4
inactive: dose: 75.0 mg/kg/injection, schedule: Q01DX001 (ip), vehicle: other 96 % of control | dose: 150.0 mg/kg/injection, schedule: Q01DX001 (ip), vehicle: other 100 % of control

CC(C)(C)/C=C\C=C\C(C)(C)C
inactive: [4] 100 % of control | [5] 103 % of control | [10] 92 % of control

CN(C)C(=O)Nc1cccc(OS(=O)(=O)N(C)C)c1
inactive: [6] 99 % of control | [7] 96 % of control

C=CCn1c(NCCN(CC)CC)nc2ccc(Cl)cc2c1=O
inactive: dose: 12.5 mg/kg/injection, schedule: Q01DX009 (ip), vehicle: saline sonified 105 % of control | dose: 12.5 mg/kg/injection, schedule: Q04DX003 (ip), vehicle: saline 100 % of control | dose: 25.0 mg/kg/injection, schedule: Q01DX009 (ip), vehicle: saline sonified 100 % of control | dose: 25.0 mg/kg/injection, schedule: Q04DX003 (ip), vehicle: saline 100 % of control | dose: 50.0 mg/kg/injection, schedule: Q01DX009 (ip), vehicle: saline sonified 103 % of control | dose: 50.0 mg/kg/injection, schedule: Q04DX003 (ip), vehicle: saline 101 % of control

O=C(O)c1ccccc1.[Cu+2]
inactive: dose: 5.0 mg/kg/injection, schedule: Q01DX001 (ip), vehicle: saline 96 % of control | dose: 10.0 mg/kg/injection, schedule: Q01DX001 (ip), vehicle: saline 91 % of control | dose: 20.0 mg/kg/injection, schedule: Q01DX001 (ip), vehicle: saline 107 % of control | dose: 40.0 mg/kg/injection, schedule: Q01DX001 (ip), vehicle: saline 102 % of control | dose: 80.0 mg/kg/injection, schedule: Q01DX001 (ip), vehicle: saline 107 % of control

Nc1ccc(N)c(N)c1
inactive: dose: 100.0 mg/kg/injection, schedule: Q04DX002 (ip), vehicle: saline 97 % of control | dose: 200.0 mg/kg/injection, schedule: Q04DX002 (ip), vehicle: saline 90 % of control | dose: 400.0 mg/kg/injection, schedule: Q04DX002 (ip), vehicle: saline 97 % of control

COc1ccc(OC)c(NC(=O)C2CC2)c1
inactive: [5] 97 % of control | [10] 102 % of control | [8] 98 % of control

CN(C1=CC(=O)C(N(C)C2CCCCC2)=CC1=O)C1CCCCC1
inactive: dose: 3.75 mg/kg/injection, schedule: Q01DX009 (ip), vehicle: saline 94 % of control | dose: 3.75 mg/kg/injection, schedule: Q04DX003 (ip), vehicle: saline 103 % of control | dose: 7.5 mg/kg/injection, schedule: Q01DX009 (ip), vehicle: saline 90 % of control | dose: 7.5 mg/kg/injection, schedule: Q04DX003 (ip), vehicle: saline 101 % of control | dose: 15.0 mg/kg/injection, schedule: Q01DX009 (ip), vehicle: saline 89 % of control | dose: 15.0 mg/kg/injection, schedule: Q04DX003 (ip), vehicle: saline 98 % of control

O=C1C=C(O)C2C(=O)C1C1/C(=[N+](/[O-])O)C=C([N+](=O)[O-])C2C1[N+](=O)[O-] (stereo not drawn)
inactive: dose: 100.0 mg/kg/injection, schedule: Q04DX002 (ip), vehicle: saline with Tween-80 98 % of control | dose: 200.0 mg/kg/injection, schedule: Q04DX002 (ip), vehicle: saline with Tween-80 110 % of control | dose: 400.0 mg/kg/injection, schedule: Q04DX002 (ip), vehicle: saline with Tween-80 98 % of control

O=C(COc1ccccc1)NCc1ccc(Cl)cc1
inactive: [6] 98 % of control | [7] 98 % of control | [9] 96 % of control

C=C1[C@@H](C)[C@H]2[C@H](Cc3ccccc3)NC(=O)[C@]23OC(=O)/C=C/[C@H](O)CCC[C@@H](C)C/C=C/[C@H]3[C@@H]1O
inactive: dose: 0.5 mg/kg/injection, schedule: Q04DX002 (ip), vehicle: Klucel (hydroxypropylcellulose) (HPC) 100 % of control | dose: 1.0 mg/kg/injection, schedule: Q04DX002 (ip), vehicle: Klucel (hydroxypropylcellulose) (HPC) 103 % of control | dose: 2.0 mg/kg/injection, schedule: Q04DX002 (ip), vehicle: Klucel (hydroxypropylcellulose) (HPC) 100 % of control | dose: 4.0 mg/kg/injection, schedule: Q04DX002 (ip), vehicle: Klucel (hydroxypropylcellulose) (HPC) 103 % of control | dose: 8.0 mg/kg/injection, schedule: Q04DX002 (ip), vehicle: Klucel (hydroxypropylcellulose) (HPC) 95 % of control

O=[N+]([O-])c1cccc(N=Nn2cccc2)c1
inactive: dose: 25.0 mg/kg/injection, schedule: Q01DX009 (ip), vehicle: saline with Tween-80 86 % of control | [4] 106 % of control | [11] 98 % of control | [5] 102 % of control

O=C1CCN2CCc3c([nH]c4ccccc34)C2C1 (stereo not drawn)
inactive: [6] 101 % of control | [7] 101 % of control | [9] 109 % of control

N#Cc1ccc(C(Cl)(Cl)Cl)cc1
inactive: [6] 104 % of control | [7] 98 % of control | [9] 96 % of control

NC(=O)OCCc1ccccc1
inactive: dose: 100.0 mg/kg/injection, schedule: Q04DX003 (ip), vehicle: Klucel (hydroxypropylcellulose) (HPC) 94 % of control | dose: 200.0 mg/kg/injection, schedule: Q04DX003 (ip), vehicle: Klucel (hydroxypropylcellulose) (HPC) 102 % of control

COC1OC2COc3ccccc3OC2C(NC#N)C1OC(C)=O (stereo not drawn)
inactive: [11] 101 % of control | dose: 200.0 mg/kg/injection, schedule: Q01DX001 (ip), vehicle: saline with Tween-80 100 % of control | dose: 400.0 mg/kg/injection, schedule: Q01DX001 (ip), vehicle: saline with Tween-80 100 % of control

CC12CC(C(=O)O)C3(O)CC(C)(C1)CC(C)(C2)C3 (stereo not drawn) (tested in a mixture with another compound)
inactive: dose: 12.5 mg/kg/injection, schedule: Q01DX009 (ip), vehicle: Klucel (hydroxypropylcellulose) (HPC) 95 % of control and 107 % of control | dose: 25.0 mg/kg/injection, schedule: Q01DX009 (ip), vehicle: Klucel (hydroxypropylcellulose) (HPC) 101 % of control and 109 % of control | dose: 50.0 mg/kg/injection, schedule: Q01DX009 (ip), vehicle: Klucel (hydroxypropylcellulose) (HPC) 87 % of control and 107 % of control | dose: 100.0 mg/kg/injection, schedule: Q01DX009 (ip), vehicle: Klucel (hydroxypropylcellulose) (HPC) 98 % of control and 110 % of control | dose: 200.0 mg/kg/injection, schedule: Q01DX009 (ip), vehicle: Klucel (hydroxypropylcellulose) (HPC) 101 % of control and 104 % of control | dose: 400.0 mg/kg/injection, schedule: Q01DX009 (ip), vehicle: Klucel (hydroxypropylcellulose) (HPC) 98 % of control
